The subject of the test is HIV. Put plainly: MT4 assay: antiviral HIV activity (cell protection, cell titer glo readout at 96 hours). The conditions noted are these: Human immunodeficiency virus 1, MT4, 96 h, MT4 cells, cell titer glo readout at 96 hours, 10 point dose response; read-out: HIV MT4 Assay IC50. It counts as cell-based. On the procedure: Antiviral HIV activity and cytotoxicity values for compounds of the invention from Table 1 were measured in parallel in the HTLV-1 transformed cell line MT-4 based on the method previously described (Hazen et al., 2007, In vitro antiviral activity of the novel, tyrosyl-based human immunodeficiency virus (HIV) type 1 protease inhibitor brecanavir (GW640385) in combination with other antiretrovirals and against a panel of protease inhibitor-resistant HIV (Hazen et al., “In vitro antiviral activity of the novel, tyrosyl-based human immunodeficiency virus (HIV) type 1 protease inhibitor brecanavir (GW640385) in combination with other antiretrovirals and against a panel of protease inhibitor-resistant HIV”, Antimicrob. Agents Chemother. 2007, 51: 3147-3154; and Pauwels et al., “Sensitive and rapid assay on MT-4 cells for the detection of antiviral compounds against the AIDS virus”, J. of Virological Methods 1987, 16: 171-185).
Luciferase activity was measured 96 hours later by adding a cell titer glo (Promega, Madison, Wis.). Percent inhibition of cell protection data was plotted relative to no compound control. Under the same condition, cytotoxicity of the compounds was determined using cell titer Glo™ (Promega, Madison, Wis.). IC50s were determined from a 10 point dose response curve using 3-4-fold serial dilution for each compound, which spans a concentration range >1000 fold.
These values are plotted against the molar compound concentrations using the standard four parameter logistic equation:
y=((Vmax*x̂n)/(K̂n+x̂n))+Y2
Y2=minimum y n=slope factor
Vmax=maximum y x=compound concentration [M]

The structures appear in SMILES notation.

As a reminder, the IC50 is the concentration that inhibits the measured activity by half. As to `Cc1nc2c(cc(C(=O)N3CCN(c4ccccc4)CC3)n2C)c(-c2cc(F)c3c(c2C)CCCO3)c1[C@H](OC(C)(C)C)C(=O)O` [Example 172], the IC50 was 5.9 nM. On to `Cc1nc2c(cc(-c3ccnc(-c4ccc5nn(C)nc5c4)c3)n2C)c(-c2cc(F)c3c(c2C)CCCO3)c1[C@H](OC(C)(C)C)C(=O)O` [Example 61], for which the IC50 was 2.6 nM. `Cc1nc2c(cc(-c3cc(-c4ccc5c(cnn5C)c4)ncn3)n2C)c(-c2cc(F)c3c(c2C)CCCO3)c1[C@H](OC(C)(C)C)C(=O)O` [Example 142]: the IC50 came to 1.8 nM. In the case of `Cc1nc2c(cc(C(=O)N3CC4CN(C5COC5)CC4C3)n2C)c(-c2cc(F)c3c(c2C)CCCO3)c1[C@H](OC(C)(C)C)C(=O)O` (stereo partly shown) [Example 189], the IC50 worked out at 1190 nM. Take `Cc1nc2c(cc(C(=O)NCCO)n2C)c(-c2cc(F)c3c(c2C)CCCO3)c1[C@H](OC(C)(C)C)C(=O)O` [Example 238]: the IC50 came to 3860 nM. As for `Cc1nc2c(cc(-c3ccnc(N4CCCN(C5CCC5)CC4)c3)n2C)c(-c2cc(F)c3c(c2C)CCCO3)c1[C@H](OC(C)(C)C)C(=O)O` (atropisomer, axis not shown) [Example 117], the IC50 amounted to 39.1 nM. For `Cc1nc2c(cc(C(=O)N3CCN(c4ccc5c(cnn5C)c4)CC3)n2C)c(-c2cc(F)c3c(c2C)CCCO3)c1[C@H](OC(C)(C)C)C(=O)O` (atropisomer, axis not shown) [Example 11, (2S)-2-(tert-butoxy)-2-[4-(8-fluoro-5-methyl-3,4-dihydro-2H-1-benzopyran-6-yl)-1,6-dimethyl-2-{[4-(1-methyl-1H-indazol-5-yl)piperazin-1-yl]carbonyl}-1H-pyrrolo[2,3-b]pyridin-5-yl]acetic acid], the IC50 worked out at 14.8 nM. In the case of `Cc1nc2c(cc(-c3nnc(N4CCC(F)(F)CC4)o3)n2C)c(-c2cc(F)c3c(c2C)CCCO3)c1[C@H](OC(C)(C)C)C(=O)O` [Example 314], the IC50 is 7.6 nM. The figure for `Cc1nc2c(cc(C3CCC(C)(C)CC3)n2C)c(-c2cc(F)c3c(c2C)CCCO3)c1[C@H](OC(C)(C)C)C(=O)O` [Example 283] is 400 nM; for `Cc1nc2c(cc(-c3ccnc(-c4ccc5nn(C6COC6)cc5c4)c3)n2C)c(-c2cc(F)c3c(c2C)CCCO3)c1[C@H](OC(C)(C)C)C(=O)O` [Example 64] it is 2.8 nM; for `Cc1nc2c(cc(-c3nsc(N4CCC(C)CC4)n3)n2C)c(-c2cc(F)c3c(c2C)CCCO3)c1[C@H](OC(C)(C)C)C(=O)O` [Example 374] it is 10.8 nM. The figure for `Cc1nc2c(cc(C(=O)NCc3ccc4c(c3)OCO4)n2C)c(-c2cc(F)c3c(c2C)CCCO3)c1[C@H](OC(C)(C)C)C(=O)O` [Example 260] is 1.9 nM.

As for `Cc1nc2c(cc(-c3ccnc(C#CC(C)(C)N)c3)n2C)c(-c2cc(F)c3c(c2C)CCCO3)c1[C@H](OC(C)(C)C)C(=O)O` (atropisomer, axis not shown) [Example 155], the 50% inhibitory concentration (IC50) was 81.9 nM.

On to `COCCS(=O)(=O)N1CCCN(c2cc(-c3cc4c(-c5cc(F)c6c(c5C)CCCO6)c([C@H](OC(C)(C)C)C(=O)O)c(C)nc4n3C)ccn2)CC1` (atropisomer, axis not shown) [Example 119], for which the IC50 worked out at 20 nM.

`Cc1nc2c(cc(C(=O)NC3CC3)n2C)c(-c2cc(F)c3c(c2C)CCCO3)c1[C@H](OC(C)(C)C)C(=O)O` [Example 234]: the IC50 came out at 44.7 nM. Regarding `Cc1ccc(-c2c([C@H](OC(C)(C)C)C(=O)O)c(C)nc3c2cc(-c2ccnc(N4CCCN(C5COC5)CC4)c2)n3C)cc1` [Example 432], the IC50 was 200 nM. On to `Cc1nc2c(cc(C(=O)N3CCc4ccccc4C3)n2C)c(-c2cc(F)c3c(c2C)CCCO3)c1[C@H](OC(C)(C)C)C(=O)O` [Example 174], for which the IC50 was 3.6 nM. For `Cc1nc2c(cc(-c3nnc(N4CCN(C5CC5)CC4)o3)n2C)c(-c2cc(F)c3c(c2C)CCCO3)c1[C@H](OC(C)(C)C)C(=O)O` [Example 336], the IC50 was 4.5 nM. `Cc1nc2c(cc(C(=O)N3CCC(c4ccc(C(N)=O)cc4)CC3)n2C)c(-c2cc(F)c3c(c2C)CCCO3)c1[C@H](OC(C)(C)C)C(=O)O` [Example 178]: the IC50 worked out at 176 nM. As for `Cc1nc2c(cc(-c3ccnc(-c4ccc5c(cnn5C)c4)c3)n2C)c(-c2ccc3c(c2)CCCO3)c1[C@H](OC(C)(C)C)C(=O)O` [Example 428], the IC50 came out at 4.6 nM. In the case of `Cc1nc2c(cc(-c3ccnc(-c4ccc(O)c(N)c4)c3)n2C)c(-c2cc(F)c3c(c2C)CCCO3)c1[C@H](OC(C)(C)C)C(=O)O` (atropisomer, axis not shown) [Example 49], the IC50 was determined as 114 nM.

As to `Cc1nc2c(cc(C(=O)N3CCC(c4ccncc4)CC3)n2C)c(-c2cc(F)c3c(c2C)CCCO3)c1[C@H](OC(C)(C)C)C(=O)O` [Example 171], the IC50 was determined as 32.6 nM. `COCCNC(=O)/C=C/c1cc2c(-c3cc(F)c4c(c3C)CCCO4)c([C@H](OC(C)(C)C)C(=O)O)c(C)nc2n1C` (atropisomer, axis not shown; (M)) [Example 413, (2S)(M)-2-(tert-butoxy)-2-(-4-(8-fluoro-5-methylchroman-6-yl)-2-((E)-3-((2-methoxyethyl)amino)-3-oxoprop-1-en-1-yl)-1,6-dimethyl-1H-pyrrolo[2,3-b]pyridin-5-yl)acetic acid]: the IC50 turned out to be 148 nM. For the compound `Cc1nc2c(cc(-c3ccnc(N4CCCN(S(C)(=O)=O)CC4)c3)n2C)c(-c2cc(F)c3c(c2C)CCCO3)c1[C@H](OC(C)(C)C)C(=O)O` (atropisomer, axis not shown) [Example 97], the IC50 was found to be 16.5 nM. Turning to `COC1CCN(c2cc(-c3cc4c(-c5cc(F)c6c(c5C)CCCO6)c([C@H](OC(C)(C)C)C(=O)O)c(C)nc4n3C)ccn2)CC1` (atropisomer, axis not shown) [Example 86], the IC50 stood at 13.2 nM. As for `Cc1nc2c(cc(-c3nc(N4CCN(C5CC5)CC4)ns3)n2C)c(-c2cc(F)c3c(c2C)CCCO3)c1[C@H](OC(C)(C)C)C(=O)O` [Example 385], the IC50 is 10 nM. `Cc1nc2c(cc(-c3noc(N4CCC(C)CC4)n3)n2C)c(-c2cc(F)c3c(c2C)CCCO3)c1[C@H](OC(C)(C)C)C(=O)O` (atropisomer, axis not shown; (M)) [Example 411, (2S)(M)-2-(tert-butoxy)-2-(-4-(8-fluoro-5-methylchroman-6-yl)-1,6-dimethyl-2-(5-(4-methylpiperidin-1-yl)-1,2,4-oxadiazol-3-yl)-1H-pyrrolo[2,3-b]pyridin-5-yl)acetic acid]: the IC50 was 7.6 nM. With `COC[C@@H]1CCCN1c1nsc(-c2cc3c(-c4cc(F)c5c(c4C)CCCO5)c([C@H](OC(C)(C)C)C(=O)O)c(C)nc3n2C)n1` [Example 404], the IC50 was found to be 12.8 nM.

Take `Cc1nc2c(cc(-c3ccnc(-c4ccc5c(c4)ncn5C)c3)n2C)c(-c2cc(F)c3c(c2C)CCCO3)c1[C@H](OC(C)(C)C)C(=O)O` [Example 51]: the IC50 was 4 nM. Take `Cc1nc2c(cc(C(=O)NC(C)C)n2C)c(-c2cc(F)c3c(c2C)CCCO3)c1[C@H](OC(C)(C)C)C(=O)O` [Example 244]: the IC50 came to 25.3 nM. In the case of `Cc1nc2c(cc(C(=O)N3CCC4(CC3)CC(Cc3cccnc3)C(=O)O4)n2C)c(-c2cc(F)c3c(c2C)CCCO3)c1[C@H](OC(C)(C)C)C(=O)O` (stereo partly shown) [Example 200], the IC50 came to 8050 nM.
